Where a SMILES comes first, the peptide text is derived from it.
Target: T1, angiotensin I converting enzyme (ACE) (Oryctolagus cuniculus, UniProt P12822)
T1 construct: ACE (from rabbit lung; 2.0 units/mg of protein); purchased Sigma Chemical Company (St. Louis, MO, USA); host or cells: rabbit lung (tissue-derived)
T1 sequence (P12822 34-1310): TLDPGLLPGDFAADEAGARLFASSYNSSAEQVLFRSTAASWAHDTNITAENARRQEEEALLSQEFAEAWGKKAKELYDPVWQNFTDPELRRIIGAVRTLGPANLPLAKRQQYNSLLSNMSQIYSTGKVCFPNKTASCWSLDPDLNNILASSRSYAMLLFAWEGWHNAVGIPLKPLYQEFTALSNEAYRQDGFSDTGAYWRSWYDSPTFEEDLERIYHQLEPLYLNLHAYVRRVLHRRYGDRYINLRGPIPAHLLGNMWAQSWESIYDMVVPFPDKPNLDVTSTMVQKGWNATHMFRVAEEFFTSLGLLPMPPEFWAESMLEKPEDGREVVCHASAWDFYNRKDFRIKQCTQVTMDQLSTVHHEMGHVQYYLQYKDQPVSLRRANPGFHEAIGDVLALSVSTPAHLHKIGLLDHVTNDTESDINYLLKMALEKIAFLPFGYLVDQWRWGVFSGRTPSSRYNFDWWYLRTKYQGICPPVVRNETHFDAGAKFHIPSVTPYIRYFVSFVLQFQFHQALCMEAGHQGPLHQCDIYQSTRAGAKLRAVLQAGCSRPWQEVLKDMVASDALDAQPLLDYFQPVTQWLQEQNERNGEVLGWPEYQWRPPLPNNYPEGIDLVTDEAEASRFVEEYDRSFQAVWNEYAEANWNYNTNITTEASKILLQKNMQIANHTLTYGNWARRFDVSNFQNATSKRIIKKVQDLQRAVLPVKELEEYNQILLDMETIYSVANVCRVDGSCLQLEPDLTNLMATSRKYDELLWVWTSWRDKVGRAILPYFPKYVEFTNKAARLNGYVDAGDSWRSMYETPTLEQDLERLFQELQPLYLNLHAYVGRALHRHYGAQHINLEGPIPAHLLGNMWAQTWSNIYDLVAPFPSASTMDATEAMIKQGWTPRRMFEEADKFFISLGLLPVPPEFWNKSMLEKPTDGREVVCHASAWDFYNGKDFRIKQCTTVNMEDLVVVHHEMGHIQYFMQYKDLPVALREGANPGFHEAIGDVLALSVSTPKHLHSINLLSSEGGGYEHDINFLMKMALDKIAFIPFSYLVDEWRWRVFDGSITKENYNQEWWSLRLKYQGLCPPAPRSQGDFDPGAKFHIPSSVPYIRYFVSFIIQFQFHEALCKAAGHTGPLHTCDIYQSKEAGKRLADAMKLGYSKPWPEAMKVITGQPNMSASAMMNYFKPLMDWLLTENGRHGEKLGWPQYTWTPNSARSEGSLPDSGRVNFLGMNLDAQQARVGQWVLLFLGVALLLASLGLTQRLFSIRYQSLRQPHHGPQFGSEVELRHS
Test: ACE inhibitory activity (IC50 and inhibitory ratio IP)
Assay type: biochemical
Details: ACE from rabbit lung
Protocol: Lizard fish was purchased from a local market in Nanning, China, during the fishing season. It was identified by engineer Cuican at Beihai Institute of Oceanology. Its muscle was rapidly separated, dried with hot air (90 °C) over 8 h, powdered, and then stored in the cryogenic refrigerator. Agarose (BR) and NiSO4·6H2O (AR) were purchased from Sinopharm Chemical Reagent Co., (Beijing, China). Iminodiacetic acid (IDA) was purchased from Sinopharm Chemical Reagent Co., Ltd. (Beijing, China). ACE (from rabbit lung; 2.0 units/mg of protein) and hippuryl-L-histidyl-L-leucine (HHL) were purchased from the Sigma Chemical Company (St. Louis, MO, USA). All other reagents used were of analytical grade.
The affinity column was equilibrated at a flow rate of 1.5 mL·min^−1 with PBS. […] Fractions with affinity for Ni^2+ ion were eluted and monitored at 280 nm. […] The ACE-inhibitory activity of these fractions were determined, and the inhibitory ratios (IP) were calculated according to Wu et al.. The concentrations of protein were measured by the UV method using a wavelength of 280 nm, and the protein recovery rate was calculated as follows: (1) R=m/M×100% • R—Recovery rate of protein, %; • m—Protein content of the sample eluted from IMAC (IMAC fractions), mg; • M—Protein content of the sample before treatment of IMAC chromatographic procedures, mg.

## N=C(N)NCCC[C@H](NC(=O)[C@H](Cc1ccc(O)cc1)NC(=O)[C@@H](N)CCCNC(=N)N)C(=O)N1CCC[C@H]1C(=O)O [RYRP, Arg-Tyr-Arg-Pro] (H-RYRP-OH)
ACE inhibition, HHL listed as material, inhibitory ratios calculated according to Wu et al. [22]
  IC50: 52 µM
RP-HPLC fractions of F2 (Zorbax SB C18), inhibitory ratio according to Wu et al. [22], test concentration not given
  IP% (inhibitory activity of fractions separated by RP-HPLC): 73.05%

Reference: publication PMC5334609, “Separation and Characterization of Angiotensin I Converting Enzyme (ACE) Inhibitory Peptides from Saurida elongata Proteins Hydrolysate by IMAC-Ni^2+” (Marine Drugs, 2017)
